# “And” between values parts separate entries of the source, which are not always exact repeats. Equal values may be shown once.
# What was measured:
# Assay in all cases: G assay PDZ-PL binding
# AIPC domain 1 = molecular target: T1, AIPC domain 1 (Homo sapiens, UniProt O15018); settings: peptide 10 uM, protein 5
# T1 construct: made in house; host or cells: E. coli (DH5alpha, BL21 or JM109), vector pGEX-3X
# Procedure: (§1) (1) A PDZ-domain polypeptide is bound to a surface, e.g. a protein binding surface. In a preferred embodiment, a GST/PDZ fusion protein containing one or more PDZ domains is bound to a polystyrene 96-well plate. […] In one embodiment, the GST/PDZ fusion protein is bound via an anti-GST antibody that is coated onto the 96-well plate. Adequate binding to the plate can be achieved when: • a. 100 uL per well of 5 ug/mL goat anti-GST polyclonal antibody (Pierce) in PBS is added to a polystyrene 96-well plate (e.g., Num Polysorb) at 4° C. for 12 hours. • b. The plate is blocked by addition of 200 uL per well of PBS/BSA for 2 hours at 4° C. • c. The plate is washed 3 times with PBS. • d. 50 uL per well of 5 ug/mL GST/PDZ fusion protein) or, as a negative control, GST polypeptide alone (i.e. not a fusion protein) in PBS/BSA is added to the plate for 2 hours at 4° C. • e. The plate is again washed 3 times with PBS. […]
# (§2) (3) The binding of the biotinylated peptide to the GST/PDZ fusion protein surface can be detected using a variety of methods and detectors known to one of skill in the art. In one embodiment, 100 uL per well of 0.5 ug/mL streptavidin-horse radish peroxidase (HRP) conjugate dissolved in BSA/PBS is added and allowed to react for 20 minutes at 4° C. The plate is then washed 5 times with 50 mM Tris pH 8.0 containing 0.2% Tween 20, and developed by addition of 100 uL per well of HRP-substrate solution (TMB, Dako) for 20 minutes at room temperature (RT). The reaction of the HRP and its substrate is terminated by addition of 100 uL per well of 1M sulfuric acid, and the absorbance of each well of the plate is read at 450 nm.
# (§3) (4) Specific binding of a PL peptide and a PDZ domain polypeptide is determined by comparing the signal from the well(s) in which the PL peptide and PDZ domain polypeptide are combined, with the background signal(s). The background signal is the signal found in the negative control(s). Typically a specific or selective reaction will be at least twice background signal, more typically more than 5 times background, and most typically 10 or more times the background signal. In addition, a statistically significant reaction will involve multiple measurements of the reaction with the signal and the background differing by at least two standard errors, more typically four standard errors, and most typically six or more standard errors. Correspondingly, a statistical test (e.g. a T-test) comparing repeated measurements of the signal with-repeated measurements of the background will result in a p-value<0.05, more typically a p-value<0.01, and most typically a p-value<0.001 or less. As noted, in an embodiment of the “G” assay, the signal from binding of a given PL peptide to immobilized (surface bound) GST polypeptide alone is one suitable negative control (sometimes referred to as “B 1”). Because all measurement are done in multiples (i.e. at least duplicate) the arithmetic mean (or, equivalently, average.) of several measurements is used in determining the binding, and the standard error of the mean is used in determining the probable error in the measurement of the binding. The standard error of the mean of N measurements equals the square root of the following: the sum of the squares of the difference between each measurement and the mean, divided by the product of (N) and (N−1). Thus, in one embodiment, specific binding of the PDZ protein to the platebound peptide is determined by comparing the mean signal (“mean S”) and standard error of the signal (“SE”) for a particular PL-PDZ combination with the mean B1.
# (§4) For convenience, the assay conditions described in this section are referred to as the “G’ assay” and the “G” assay,” with the specific conditions described in the preceding section on G assays being referred to as the “G° assay.” The “G′ assay” is identical to the “G° assay” except at step (2) the peptide concentration is 10 uM instead of 20 uM. […]
# CASK domain 1 = molecular target: T2, CASK domain 1 (Homo sapiens, UniProt O14936); settings: peptide 10 uM, protein 5
# T2 construct: made in house; host or cells: E. coli (DH5alpha or BL-21)
# T2 sequence (O14936 486-575): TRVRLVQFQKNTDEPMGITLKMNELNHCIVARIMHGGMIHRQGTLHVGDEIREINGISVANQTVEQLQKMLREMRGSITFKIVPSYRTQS
# Procedure: as §1, §2, §3, §4
# DLG1 domain 3 = molecular target: T3, DLG1 domain 3 (Homo sapiens, UniProt Q12959); settings: peptide 10 uM, protein 5
# T3 construct: made in house; host or cells: E. coli (DH5alpha or BL-21)
# Procedure: as §1, §2, §3, §4
# EBP50 #287.1 domain 2 = molecular target: T4, EBP50 #287.1 domain 2 (Homo sapiens, UniProt O14745); settings: peptide 10 uM, protein 5
# T4 construct: made in house; host or cells: E. coli (DH5alpha, BL21 or JM109)
# T4 sequence (O14745 with tags, fused parts or gaps): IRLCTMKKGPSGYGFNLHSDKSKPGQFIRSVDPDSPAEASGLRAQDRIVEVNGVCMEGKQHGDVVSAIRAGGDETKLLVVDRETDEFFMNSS
# Procedure: as §1, §2, §3, §4
# EBP50 #341.1 domain 1 = molecular target: T5, EBP50 #341.1 domain 1 (Homo sapiens, UniProt O14745); settings: peptide 10 uM, protein 5
# T5 construct: made in house; host or cells: E. coli (DH5alpha or BL-21)
# T5 sequence (O14745 with tags, fused parts or gaps): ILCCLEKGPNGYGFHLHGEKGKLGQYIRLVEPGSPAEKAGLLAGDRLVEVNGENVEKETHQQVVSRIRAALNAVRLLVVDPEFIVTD
# Procedure: as §1, §2, §3, §4
# HTRA 3 domain 1 = molecular target: T6, HTRA 3 domain 1 (Homo sapiens, UniProt P83110); settings: peptide 10 uM, protein 5
# T6 construct: made in house; host or cells: E. coli (DH5alpha or BL-21)
# T6 sequence (P83110 with tags, fused parts or gaps): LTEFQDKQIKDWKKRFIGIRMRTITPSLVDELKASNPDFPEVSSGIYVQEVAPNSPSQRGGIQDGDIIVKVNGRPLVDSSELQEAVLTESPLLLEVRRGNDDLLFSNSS
# Procedure: as §1, §2, §3, §4
# KIAA0147 domain 1 = molecular target: T7, KIAA0147 domain 1 (Homo sapiens, UniProt Q14160); settings: A450 nm, peptide 10 uM, protein 5
# T7 construct: made in house; host or cells: E. coli (DH5alpha, BL21 or JM109)
# T7 sequence (Q14160 with tags, fused parts or gaps): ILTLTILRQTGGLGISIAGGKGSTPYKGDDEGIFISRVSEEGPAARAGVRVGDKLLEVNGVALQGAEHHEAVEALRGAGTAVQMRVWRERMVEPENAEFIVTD
# Procedure: as §1, §2, §3, §4
# KIAA0316 domain 1 = molecular target: T8, KIAA0316 domain 1 (Homo sapiens, UniProt Q14CM0); settings: peptide 10 uM, protein 5
# T8 construct: made in house; host or cells: E. coli (DH5alpha, BL21 or JM109), vector pGEX-3X
# T8 sequence (Q14CM0 72-159): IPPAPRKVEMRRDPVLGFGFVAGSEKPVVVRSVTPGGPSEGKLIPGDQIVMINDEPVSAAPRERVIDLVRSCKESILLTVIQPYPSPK
# Procedure: as §1, §2, §3, §4
# KIAA0380 #25.6 domain 1 = molecular target: T9, KIAA0380 #25.6 domain 1 (Homo sapiens, UniProt O15085); settings: vs GST only well, peptide 10 uM, protein 5
# T9 construct: made in house; host or cells: E. coli (DH5alpha, BL21 or JM109), vector pGEX-3X
# T9 sequence (O15085 45-123): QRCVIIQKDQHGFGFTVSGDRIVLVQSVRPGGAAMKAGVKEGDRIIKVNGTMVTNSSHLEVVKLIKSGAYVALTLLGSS
# Procedure: as §1, §2, §3, §4
# LIM Mystique domain 1 = molecular target: T10, LIM Mystique domain 1 (Homo sapiens, UniProt Q96JY6); settings: peptide 10 uM, protein 5
# T10 construct: made in house; host or cells: E. coli (DH5alpha, BL21 or JM109), vector pGEX-3X
# T10 sequence (Q96JY6 1-91): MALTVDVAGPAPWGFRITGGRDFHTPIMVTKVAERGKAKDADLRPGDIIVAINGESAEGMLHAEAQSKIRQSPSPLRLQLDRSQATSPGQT
# Procedure: as §1, §2, §3, §4
# Magi2 domain 3 = molecular target: T11, Magi2 domain 3 (Homo sapiens, UniProt Q86UL8); settings: peptide 10 uM, protein 5
# T11 construct: made in house; host or cells: E. coli (DH5alpha or BL-21)
# T11 sequence (Q86UL8 with tags, fused parts or gaps): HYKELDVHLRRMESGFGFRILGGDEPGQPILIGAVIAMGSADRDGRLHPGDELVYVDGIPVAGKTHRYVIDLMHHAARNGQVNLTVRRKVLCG
# Procedure: as §1, §2, §3, §4
# NSP #42.5 domain 1 = molecular target: T12, NSP #42.5 domain 1 (Homo sapiens, UniProt Q92743); settings: peptide 10 uM, protein 5
# T12 construct: made in house; host or cells: E. coli (DH5alpha or BL-21)
# T12 sequence (Q92743 359-473): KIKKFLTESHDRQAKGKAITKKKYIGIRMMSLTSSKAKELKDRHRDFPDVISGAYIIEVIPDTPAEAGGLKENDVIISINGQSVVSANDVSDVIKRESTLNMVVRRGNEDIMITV
# Procedure: as §1, §2, §3, §4
# NeDLG domain 1 = molecular target: T13, NeDLG domain 1 (Homo sapiens, UniProt Q92796, D190E); settings: peptide 10 uM, protein 5
# T13 construct: made in house; host or cells: E. coli (DH5alpha, BL21 or JM109)
# T13 sequence (Q92796 with tags, fused parts or gaps D190E): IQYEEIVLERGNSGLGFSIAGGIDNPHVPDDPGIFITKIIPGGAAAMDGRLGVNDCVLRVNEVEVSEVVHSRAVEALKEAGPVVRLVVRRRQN
# Procedure: as §1, §2, §3, §4
# [1] = molecular target: T14, Syntrophin gamma 2 domain 1 (Homo sapiens, UniProt Q9NY99); settings: peptide 10 uM, protein 5
# T14 construct: made in house; host or cells: E. coli (DH5alpha, BL21 or JM109), vector pGEX-3X
# T14 sequence (Q9NY99 65-163): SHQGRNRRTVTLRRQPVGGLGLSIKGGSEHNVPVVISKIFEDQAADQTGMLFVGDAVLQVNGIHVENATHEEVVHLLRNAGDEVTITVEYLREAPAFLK
# Procedure: as §1, §2, §3, §4
# T1 sequence (O15018 with tags, fused parts or gaps): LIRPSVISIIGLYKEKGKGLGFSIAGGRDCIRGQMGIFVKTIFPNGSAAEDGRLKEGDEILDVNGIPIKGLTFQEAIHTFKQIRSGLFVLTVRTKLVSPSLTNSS
substance,measurement,setting,value
"20 mer peptide corresponding to the C-terminus of HPV16 E6 (PDZ ligand), biotinylated in binding assays; ends SSRTRRETQL (SEQ ID NO: 13) [HPV E6 #16]",Ave OD,AIPC domain 1; A450 nm,0.5595
same,OD S/N,AIPC domain 1; vs GST only well,2.30
same,Ave OD,CASK domain 1; A450 nm,0.36
same,OD S/N,CASK domain 1; vs GST only well,1.15
same,Ave OD,DLG1 domain 3; A450 nm,0.3975
same,OD S/N,DLG1 domain 3; vs GST only well,2.45
same,Ave OD,EBP50 #287.1 domain 2; A450 nm,0.499
same,OD S/N,EBP50 #287.1 domain 2; vs GST only well,2.57
same,Ave OD,EBP50 #341.1 domain 1; A450 nm,0.43
same,OD S/N,EBP50 #341.1 domain 1; vs GST only well,1.65
same,Ave OD,HTRA 3 domain 1; A450 nm,0.4135
same,OD S/N,HTRA 3 domain 1; vs GST only well,1.34
same,Ave OD,KIAA0147 domain 1,2.1465 and 3.764
same,Ave OD,KIAA0316 domain 1; A450 nm,0.343 and 0.6125
same,OD S/N,KIAA0316 domain 1; vs GST only well,2.34 and 2.56
same,OD S/N,KIAA0380 #25.6 domain 1,1.95 and 3.06
same,Ave OD,LIM Mystique domain 1; A450 nm,0.5955
same,OD S/N,LIM Mystique domain 1; vs GST only well,2.84
same,Ave OD,Magi2 domain 3; A450 nm,0.4165 and 0.359
same,OD S/N,Magi2 domain 3; vs GST only well,1.98 and 1.65
same,Ave OD,NSP #42.5 domain 1; A450 nm,0.4165
same,OD S/N,NSP #42.5 domain 1; vs GST only well,1.95
same,Ave OD,NeDLG domain 1; A450 nm,0.5165
same,OD S/N,NeDLG domain 1; vs GST only well,1.98
same,Ave OD,[1]; A450 nm,0.469 and 0.7725
same,OD S/N,[1]; vs GST only well,2.76 and 3.13

# From US20100120700A1, “METHODS AND COMPOSITIONS FOR TREATING CERVICAL CANCER” (priority 2000, published 2010)
